The values that follow come from patent EP0252524A2, “Aryl- and aralkylamide- derivatives of Omega- (substituted-phenyloxy)-alkanoic acids as inhibitors of acyl-coa: cholesterol acyltransferase and pharmaceuticals containing them” (WARNER-LAMBERT COMPANY, priority 1986, dated 1988).

SMILES strings stand for the structures.

The target of the test is acyl-CoA:cholesterol acyltransferase (ACAT). The test can be described thus: in vitro ACAT inhibition test: radio-labeled cholesteryl oleate formed from radio-labeled oleic acid in intestinal microsomes. It counts as biochemical. The settings on record: concentration required to inhibit cholesteryl oleate formation to 50% of control; tissue preparation containing rabbit intestinal microsomes. The method, then: The ability of representative compounds of the present invention to inhibit ACAT was measured using an in vitro test more fully described in Field, F. J. and Salone, R. G., Biochemica et Biophysica 712: 557-570 (1982). The test assesses the ability of a test compound to inhibit the acylation of cholesterol by oleic acid by measuring the amount of radio-labeled cholesterol oleate formed from radio-labeled oleic acid in a tissue preparation containing rabbit intestinal microsomes.
The data appear in the Table where they are expressed as IC₅₀ values; i.e. the concentration of test compound required to inhibit cholesteryl oleate formation to 50% of control.
`Cc1ccc(OCCCC(C)(C)C(=O)NC(C)c2ccccn2)cc1` (centres unmarked) [Example 1, 2,2-dimethyl-5-(4-methylphenoxy)-N-[1-(2-pyridinyl)ethyl]pentanamide] gave a half-maximal inhibitory concentration (IC50) of 4800 nM.

Compound `CCCCc1ccc(OCCCC(C)(C)C(=O)Nc2ccccc2OC)cc1` [Example 2, 5-(4-butylphenoxy)-N-(2-methoxyphenyl)-2,2-dimethylpentanamide] had an IC50 of 4300 nM.

The compound `CCCCc1ccc(OCCCC(C)(C)C(=O)Nc2ccc(C)cc2OC)cc1` [Example 3, 5-(4-butylphenoxy)-N-(2-methoxy-4-methylphenyl)-2,2-dimethylpentanamide] displayed an IC50 of 2400 nM.

As for `CCCCc1ccc(OCCCC(C)(C)C(=O)Nc2c(OC)cc(OC)cc2OC)cc1` [Example 4, 5-(4-butylphenoxy)-2,2-dimethyl-N-(2,4,6-trimethoxyphenyl)-pentanamide], 460 nM corresponded to half-maximal inhibition (IC50).

Compound `CCCCc1ccc(OCCCC(C)(C)C(=O)NC(C)c2ccccn2)cc1` (centres unmarked) [Example 5, 5-(4-butylphenoxy)-2,2-dimethyl-N-[1-(2-pyridinyl)ethyl]pentanamide] came in with an IC50 of 800 nM.

In the case of `CCCCc1ccc(OCCCC(C)(C)C(=O)Nc2c(OC)ncnc2OC)cc1` [Example 7, 5-(4-butylphenoxy)-N-(4,6-dimethoxy-5-pyrimidinyl)-2,2-dimethylpentanamide], the midpoint of inhibition, the IC50, lay at 9000 nM.

Take `Cc1ccc(NC(=O)C(C)(C)CCCOc2ccc(C(C)(C)C)cc2)c(C)c1` [Example 8, 5-[4-(1,1-dimethylethyl)phenoxy]-N-(2,4-dimethylphenyl)-2,2-dimethylpentanamide]: the concentration for half-maximal inhibition (IC50) worked out at 1400 nM. Against the preceding compound, the IC50 is about 6.4-fold lower.

The compound `CC(C)(CCCOc1ccc(C(C)(C)C)cc1)C(=O)Nc1ccc(F)cc1F` [Example 9, N-(2,4-difluorophenyl)-5-[4-(1,1-dimethylethyl)phenoxy]-2,2-dimethylpentanamide] yielded a 50% inhibitory concentration (IC50) of 1200 nM.

For the compound `COc1cc(OC)c(NC(=O)C(C)(C)CCCOc2ccc(C(C)(C)C)cc2)c(OC)c1` [Example 10, 5-[4-(1,1-dimethylethyl)phenoxy]-2,2-dimethyl-N-(2,4,6-trimethoxyphenyl)pentanamide], the IC50 was 44 nM.

`CC(NC(=O)C(C)(C)CCCOc1ccc(C(C)(C)C)cc1)c1ccccn1` (centres unmarked) [Example 12, 5-[4-(1,1-dimethylethyl)phenoxy]-2,2-dimethyl-N-[1-(2-pyridinyl)ethyl]pentanamide]: the 50% inhibitory concentration (IC50) was 700 nM.

`CCC(C)(C)c1ccc(OCCCC(C)(C)C(=O)NC(C)c2ccccn2)cc1` (centres unmarked) [Example 13, 5-[4-(1,1-dimethylpropyl)phenoxy]-2,2-dimethyl-N-[1-(2-pyridinyl)ethyl]pentanamide] gave an IC50 of 160 nM. This IC50 is about 4.4-fold lower than that of the compound before.

For the compound `CCCCCCc1ccc(OCCCC(C)(C)C(=O)NC(C)c2ccccn2)cc1` (centres unmarked) [Example 15, 5-(4-hexylphenoxy)-2,2-dimethyl-N-[1-(2-pyridinyl)ethyl]pentanamide], the midpoint of inhibition, the IC50, lay at 700 nM.

Compound `CCCCCCCCc1ccc(OCCCC(C)(C)C(=O)Nc2c(OC)cc(OC)cc2OC)cc1` [Example 16, 2,2-dimethyl-5-(4-octylphenoxy)-N-(2,4,6-trimethoxyphenyl)pentanamide] registered an IC50 of 800 nM.

In turn, `CCCCCCCCc1ccc(OCCCC(C)(C)C(=O)NC(C)c2ccccn2)cc1` (centres unmarked) [Example 17, 2,2-dimethyl-5-(4-octylphenoxy)-N-[1-(2-pyridinyl)ethyl]pentanamide] gave an IC50 of 450 nM.
